Measured values reported in patent publication US10584115B2, “Substituted pyridine and pyrazine BMI-1 inhibitors” (PTC Therapeutics, Inc., priority 2013, dated 2020).
Like-named read-outs stand apart in the source and are kept apart here.

Key:
[1] = system: Bmi-1 protein; test: Sandwich ELISA Assay (Bmi-1 protein level in HT-1080 cells after compound treatment); format: cell-based
In short: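 HT-1080 cells exposed to compounds for 40–48 h at 37 °C (0.5% DMSO final), then lysed. Bmi-1 in lysates measured by sandwich ELISA (mouse monoclonal capture, rabbit anti-Bmi-1 detection, HRP anti-rabbit, TMB), read at OD450 with OD570 reference against a recombinant Bmi-1 standard curve (0–8000 pg/mL).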

[2] = Table 1, Bmi-1 sandwich ELISA, read-out: ELISA EC50 value for Bmi-1 protein

EC50 [1, 2]	melting point	SMILES	EC50 ([1]; read-out: ELISA EC50 value for Bmi-1 protein, Table 1, Bmi-1 sandwich ELISA)
10 to 100 nM	122 to 125 °C	Fc1ccn2nc(C3CC3)c(-c3cncc(Nc4ccc(C(F)(F)F)cc4)n3)c2c1 [compound 535, 6-(2-cyclopropyl-5-fluoropyrazolo[1,5-a]pyridin-3-yl)-N-[4-(trifluoromethyl)phenyl]pyrazin-2-amine]	
10 to 100 nM	183 to 186 °C	[O-][n+]1cc(Nc2ccc(C(F)(F)F)cc2)nc(-c2c(C3CC3)nn3ccc(F)cc23)c1 [compound 536, 6-(2-cyclopropyl-5-fluoropyrazolo[1,5-a]pyridin-3-yl)-N-[4-(trifluoromethyl)phenyl]pyrazin-2-amine 4-oxide]	
100 to 3000 nM	129 to 131 °C	CCc1nn2ccc(F)cc2c1-c1cncc(Nc2ccc(C(F)(F)F)cc2)n1 [compound 551, 6-(2-ethyl-5-fluoropyrazolo[1,5-a]pyridin-3-yl)-N-[4-(trifluoromethyl)phenyl]pyrazin-2-amine]	
< 1 nM	184 to 186 °C	COc1ccc(Nc2cncc(-n3c(C)nc4ccc(F)cc43)n2)cc1 [compound 552, 6-(6-fluoro-2-methyl-1H-benzimidazol-1-yl)-N-(4-methoxyphenyl)pyrazin-2-amine]	
100 to 3000 nM	300 to 303 °C	Cc1nc2ccc(F)cc2n1-c1cncc(Nc2ccc(C#N)cc2)n1 [compound 555, 4-{[6-(6-fluoro-2-methyl-1H-benzimidazol-1-yl)pyrazin-2-yl]amino}benzonitrile]	
10 to 100 nM	198 to 200 °C	COC(=O)c1ccc(Nc2cncc(-n3c(C)nc4ccc(F)cc43)n2)cc1 [compound 556, methyl 4-{[6-(6-fluoro-2-methyl-1H-benzimidazol-1-yl)pyrazin-2-yl]amino}benzoate]	
10 to 100 nM	189 to 191 °C	Cc1nc2ccc(F)cc2n1-c1cncc(Nc2ccc(N)cc2)n1 [compound 558, N-[6-(6-fluoro-2-methyl-1H-benzimidazol-1-yl)pyrazin-2-yl]benzene-1,4-diamine]	
100 to 3000 nM	173 to 174 °C	Cc1cccc(Nc2cncc(-n3c(C)nc4ccc(F)cc43)n2)c1 [compound 560, 6-(6-fluoro-2-methyl-1H-benzimidazol-1-yl)-N-(3-methylphenyl)pyrazin-2-amine]	
100 to 3000 nM	208 to 210 °C	Cc1nc2ccc(F)cn2c1-c1cncc(Nc2ccc(F)cc2)n1 [compound 591, 6-(6-fluoro-2-methylimidazo[1,2-a]pyridin-3-yl)-N-(4-fluorophenyl)pyrazin-2-amine]	
1 to 10 nM	215 to 218 °C	Cc1nc2ccc(F)cn2c1-c1cncc(Nc2ccc(Cl)cc2)n1 [compound 593, N-(4-chlorophenyl)-6-(6-fluoro-2-methylimidazo[1,2-a]pyridin-3-yl)pyrazin-2-amine]	
100 to 3000 nM	188 to 190 °C	Cc1nc2ccc(F)cn2c1-c1cncc(Nc2cccc(C(F)(F)F)c2)n1 [compound 594, 6-(6-fluoro-2-methylimidazo[1,2-a]pyridin-3-yl)-N-[3-(trifluoromethyl)phenyl]pyrazin-2-amine]	
10 to 100 nM	270 to 273 °C	Cc1nc2ccc(F)cn2c1-c1cncc(Nc2cccc(F)c2)n1 [compound 595, 6-(6-fluoro-2-methylimidazo[1,2-a]pyridin-3-yl)-N-(3-fluorophenyl)pyrazin-2-amine]	
1 to 10 nM	270 to 273 °C	COc1cccc(Nc2cncc(-c3c(C)nc4ccc(F)cn34)n2)c1 [compound 596, 6-(6-fluoro-2-methylimidazo[1,2-a]pyridin-3-yl)-N-(3-methoxyphenyl)pyrazin-2-amine]	
10 to 100 nM	272 to 275 °C	Cc1nc2ccc(F)cn2c1-c1cncc(Nc2cccc(Cl)c2)n1 [compound 597, N-(3-chlorophenyl)-6-(6-fluoro-2-methylimidazo[1,2-a]pyridin-3-yl)pyrazin-2-amine]	
100 to 3000 nM	218 to 220 °C	Cc1nc2ccc(F)cn2c1-c1cncc(Nc2ccccc2F)n1 [compound 598, 6-(6-fluoro-2-methylimidazo[1,2-a]pyridin-3-yl)-N-(2-fluorophenyl)pyrazin-2-amine]	
< 1 nM	218 to 220 °C	CCc1nc2ccc(F)cc2n1-c1cncc(Nc2ccc(OC)cc2)n1 [compound 621, 6-(2-ethyl-6-fluoro-1H-benzimidazol-1-yl)-N-(4-methoxyphenyl)pyrazin-2-amine]	
1 to 10 nM	223 to 226 °C	CCc1nc2ccc(F)cc2n1-c1cncc(Nc2ccc(C)cc2)n1 [compound 622, 6-(2-ethyl-6-fluoro-1H-benzimidazol-1-yl)-N-(4-methylphenyl)pyrazin-2-amine]	
1 to 10 nM	252 to 255 °C	CCc1nc2ccc(F)cc2n1-c1cncc(Nc2ccc(Cl)cc2)n1 [compound 623, N-(4-chlorophenyl)-6-(2-ethyl-6-fluoro-1H-benzimidazol-1-yl)pyrazin-2-amine]	
10 to 100 nM	179 to 181 °C	CCc1nc2ccc(F)cc2n1-c1cncc(Nc2cccc(OC)c2)n1 [compound 624, 6-(2-ethyl-6-fluoro-1H-benzimidazol-1-yl)-N-(3-methoxyphenyl)pyrazin-2-amine]	
100 to 3000 nM	192 to 195 °C	CCc1nc2ccc(F)cc2n1-c1cncc(Nc2cccc(Cl)c2)n1 [compound 625, N-(3-chlorophenyl)-6-(2-ethyl-6-fluoro-1H-benzimidazol-1-yl)pyrazin-2-amine]	
100 to 3000 nM	228 to 230 °C	CCc1nc2ccc(F)cc2n1-c1cncc(Nc2cccc(F)c2)n1 [compound 626, 6-(2-ethyl-6-fluoro-1H-benzimidazol-1-yl)-N-(3-fluorophenyl)pyrazin-2-amine]	
1 to 10 nM	186 to 188 °C	Cc1ccc(Nc2cncc(-c3c(C)noc3C)n2)cc1 [compound 635, 6-(3,5-dimethyl-1,2-oxazol-4-yl)-N-(4-methylphenyl)pyrazin-2-amine]	
10 to 100 nM	154 to 155 °C	COc1ccc(Nc2cncc(-c3c(C)noc3C)n2)cc1 [compound 636, 6-(3,5-dimethyl-1,2-oxazol-4-yl)-N-(4-methoxyphenyl)pyrazin-2-amine]	
10 to 100 nM	158 to 159 °C	COc1ccc(Nc2cncc(-c3c(C)noc3C)n2)cc1F [compound 637, 6-(3,5-dimethyl-1,2-oxazol-4-yl)-N-(3-fluoro-4-methoxyphenyl)pyrazin-2-amine]	
100 to 3000 nM	173 to 174 °C	COc1ccc(Nc2cncc(-c3c(C)noc3C)n2)cn1 [compound 638, 6-(3,5-dimethyl-1,2-oxazol-4-yl)-N-(6-methoxypyridin-3-yl)pyrazin-2-amine]	
100 to 3000 nM	185 to 186 °C	Cc1noc(C)c1-c1cncc(Nc2ccc3c(c2)OCO3)n1 [compound 639, N-(1,3-benzodioxol-5-yl)-6-(3,5-dimethyl-1,2-oxazol-4-yl)pyrazin-2-amine]	

SMILES	EC50 [1, 2]	melting point	EC50 ([1]; read-out: ELISA EC50 value for Bmi-1 protein, Table 1, Bmi-1 sandwich ELISA)
Cc1nc2ccc(F)cn2c1-c1cncc(Nc2ccccc2)n1 [compound 590, 6-(6-fluoro-2-methylimidazo[1,2-a]pyridin-3-yl)-N-phenylpyrazin-2-amine]		216 to 218 °C	10 to 100 nM
